In patent US20260265199A1, “CRYSTALLINE FORMS OF (R)-2-AMINO-5-(4-(2-(3,5-DIFLUOROPHENYL)-2-HYDROXYACETAMIDO)-2-METHYLPHENYL)-N-ISOPROPYLNICOTINAMIDE AND METHODS FOR USING THE SAME” (HIBERCELL, INC., priority 2023, published 2026):
Structures can show the parent of a compound that is named as a salt. Where two headings read alike, the source gives them in different places.

Columns and labels:
Type in all cases: physicochemical
[1] = Solubility in water and biologically relevant media (SGF, FeSSIF, FaSSIF), HPLC, pH, XRPD; conditions: 37° C.; for XRPD of the filter cake: 24 h
Method: (§1) HPLC analysis was performed with an Agilent HPLC 1260 series instrument.
The solubility of the Form A of the hemi-fumarate salt was evaluated in water and biologically relevant media, SGF, FeSSIF, and FaSSIF. About 10 mg of the sample was weighed into sample vials and then 2 mL of three bio-relevant media and water were added to each respective sample to make suspensions. All suspensions were shaken at 37° C. with 200 rpm. […] The XRPD pattern from the solubility test of the Form A of the hemi-fumarate salt of the compound of formula (I) is depicted in FIG. 12.

[2] = Slurry study of Form A of the hemi-fumarate salt (XRPD of solids)
Method: XRPD patterns of samples were collected using with an X-ray diffractometer (Bruker D8 advance). The system was equipped with LynxEye detector. Samples were scanned from 3 to 40° 2θ, at a step size 0.02° 2θ. The tube voltage and current were 40 KV and 40 mA, respectively.
Slurry studies of the Form A of the hemi-fumarate salt were conducted at room temperature for four days and at 50° C. for one day. About 10 mg to 35 mg of the Form A of the hemi-fumarate salt was slurried in different solvents at RT or 50° C. for one to four days. Solid samples were collected by filtration and analyzed by XRPD (Example 1, XRPD) at a specific time. […] The overlay of XRPD patterns from the slurry study of the Form A of the hemi-fumarate salt of the compound of formula (I) is depicted in FIG. 11.

[3] = Solubility of hemi-fumarate Form A by visual assessment upon solvent addition
Method: The solubility of the Form A of the hemi-fumarate salt was evaluated by visual assessment of samples upon solvent addition, employing organic solvents and water. Among the solvents, the Form A of the hemi-fumarate salt had the highest solubility in THF, MeOH, EtOH and acetone (>50 mg/mL).

[4] = Physical stability under high humidity (92.5% RH); conditions: 11 days
Method: The physical stability of the Form A of the hemi-fumarate salt was evaluated under high humidity (92.5% RH) for 11 days.

[5] = Physical and chemical stability at 40° C. (75% RH) and 60° C. (XRPD, HPLC); conditions: for Physical and chemical stability / XRPD - 29 days / Purity (%) - 29 days: 29 days
Method: as §1
Appropriate amount of the Form A of the hemi-fumarate salt was placed at 40° C. (75% RH) and 60° C. for several days. The solids were analyzed by XRPD (Example 1, XRPD) and HPLC (Example 1, HPLC) at appropriate time points. The physical and chemical stabilities of the Form A of the hemi-fumarate salt was conducted at 60° C. and at 40° C. (75% RH) for 29 days. No obvious degradation occurred and no form change was observed under testing conditions. […] (75% RH) for 29 days.

[6] = Slurry study of Form A of the hemi-fumarate salt (XRPD of solids); conditions: room temperature, three days (footnote *)
[7] = Mechanical treatment (manual grinding) of Form A of the hemi-fumarate salt
Method: Appropriate amount of the Form A of the hemi-fumarate salt was ground for about two and five minutes manually and the samples were analyzed by XRPD (Example 1, XRPD). […] The crystallinity became low after grinding for five minutes. Solubility of the Form A of the Hemi-Fumarate Salt of the Compound of Formula (I) in Biologically Relevant Media

Cc1cc(NC(=O)[C@H](O)c2cc(F)cc(F)c2)ccc1-c1cnc(N)c(C(=O)NC(C)C)c1 [Form A of the hemi-fumarate salt, (R)-2-amino-5-(4-(2-(3,5-difluorophenyl)-2-hydroxyacetamido)-2-methylphenyl)-N-isopropylnicotinamide]
pH of the filtrate ([1]; FaSSIF, 0.5 hours): 6.39 | pH of the filtrate ([1]; FaSSIF, 2 hours): 6.36 | XRPD of the filter cake ([1]; FaSSIF): exhibited dissociation into the free base Form | XRPD of the filter cake ([1]; FaSSIF, listed as Form A of the Hemi-Fumarate Salt): Changed | pH of the filtrate ([1]; FaSSIF, 24 hours): 5.57 | pH of the filtrate ([1]; FeSSIF, 0.5 hours): 5.14 | pH of the filtrate ([1]; FeSSIF, 2 hours): 4.88 | XRPD of the filter cake ([1]; FeSSIF): exhibited dissociation into the free base Form | XRPD of the filter cake ([1]; FeSSIF, listed as Form A of the Hemi-Fumarate Salt): Changed | pH of the filtrate ([1]; FeSSIF, 24 hours): 4.71 | Solubility comparison between media ([1]; SGF vs FeSSIF, FaSSIF and water): more soluble in SGF than in FeSSIF, FaSSIF, and water | pH of the filtrate ([1]; SGF, 0.5 hours): 1.12 | pH of the filtrate ([1]; SGF, 2 hours): 1.10 | XRPD of the filter cake ([1]; SGF): No XRPD pattern change was observed | pH of the filtrate ([1]; SGF, 24 hours): 1.36 | pH of the filtrate ([1]; Water, 0.5 hours): 3.77 | pH of the filtrate ([1]; Water, 2 hours): 2.97 | XRPD of the filter cake ([1]; Water): exhibited dissociation into the free base Form | XRPD of the filter cake ([1]; Water, listed as Form A of the Hemi-Fumarate Salt): Changed | pH of the filtrate ([1]; Water, 24 hours): 2.91 | solubility at 24 h ([1]; pH 1.36, simulated gastric fluid, thermodynamic from solid, SGF, 24 hours): 4370 µg/mL | solubility at 24 h ([1]; pH 2.91, thermodynamic from solid, Water, 24 hours): 81 µg/mL | solubility at 2 h ([1]; pH 2.97, thermodynamic from solid, Water, 2 hours): 81 µg/mL | solubility at 0.5 h ([1]; pH 3.77, thermodynamic from solid, Water, 0.5 hours): 10 µg/mL | solubility at 24 h ([1]; pH 4.71, thermodynamic from solid, FeSSIF, 24 hours): 41 µg/mL | solubility at 2 h ([1]; pH 4.88, thermodynamic from solid, FeSSIF, 2 hours): 149 µg/mL | solubility at 0.5 h ([1]; pH 5.14, thermodynamic from solid, FeSSIF, 0.5 hours): 214 µg/mL | solubility at 24 h ([1]; pH 5.57, thermodynamic from solid, FaSSIF, 24 hours): 29 µg/mL | solubility at 2 h ([1]; pH 6.36, thermodynamic from solid, FaSSIF, 2 hours): 16 µg/mL | solubility at 0.5 h ([1]; pH 6.39, thermodynamic from solid, FaSSIF, 0.5 hours): 22 µg/mL | solubility at 0.5 h ([1]; simulated gastric fluid, thermodynamic from solid, SGF, 0.5 hours): 4290 µg/mL | solubility at 2 h ([1]; simulated gastric fluid, thermodynamic from solid, SGF, 2 hours): 4230 µg/mL | XRPD result after slurry ([2]; Acetone/heptane (1:4), 50° C., 1 day): Form A | XRPD result after slurry ([2]; Acetone/heptane (1:4), room temperature, 4 days): Form A | XRPD result after slurry ([2]; EtOAc, 50° C., 1 day): Form A | XRPD result after slurry ([2]; Heptane, 50° C., 1 day): Form A | XRPD result after slurry ([2]; IPAc, 50° C., 1 day): Form A | XRPD result after slurry ([2]; Isobutanol, 50° C., 1 day): Form A | XRPD result after slurry ([2]; Isobutanol, room temperature, three days (footnote *)): Form A* | XRPD result after slurry ([2]; MTBE, 50° C., 1 day): Form A | XRPD result after slurry ([2]; MTBE, room temperature, 4 days): Form A | XRPD result after slurry ([2]; MeCN, 50° C., 1 day): Form A | XRPD result after slurry ([2]; MeCN, room temperature, 4 days): Form A | XRPD result after slurry ([2]; MeOH/water (1:4), 50° C., 1 day): mixture of the Form B of the hemi-fumarate salt of the compound of formula (I) (Form B) and the free base Form of the compound of formula (I) (FBF) | XRPD result after slurry ([2]; Toluene, 50° C., 1 day): Form A | XRPD result after slurry ([2]; Water, 50° C., 1 day): mixture of the Form B of the hemi-fumarate salt of the compound of formula (I) (Form B) and the free base Form of the compound of formula (I) (FBF) | solubility ([3]; 2-butanone, organic solvent or mixture, thermodynamic from solid, 2-butanone, read-out: Solubility): > 27.5 mg/mL | solubility ([3]; Acetone): >50 mg/mL | solubility ([3]; EtOAc, organic solvent or mixture, thermodynamic from solid, EtOAc, read-out: Solubility): > 9.8 mg/mL | solubility ([3]; EtOH): >53.4 mg/mL | solubility ([3]; EtOH, organic solvent or mixture, thermodynamic from solid, EtOH, read-out: Solubility): > 50 mg/mL | solubility ([3]; IPA, organic solvent or mixture, thermodynamic from solid, IPA, read-out: Solubility): > 17.8 mg/mL | solubility ([3]; IPAc, organic solvent or mixture, thermodynamic from solid, IPAc, read-out: Solubility): > 2.1 mg/mL | solubility ([3]; MTBE, organic solvent or mixture, thermodynamic from solid, MTBE, read-out: Solubility): < 2.2 mg/mL | solubility ([3]; MeCN, organic solvent or mixture, thermodynamic from solid, MeCN, read-out: Solubility): > 3.2 mg/mL | solubility ([3]; MeOH): >62.2 mg/mL | solubility ([3]; MeOH, organic solvent or mixture, thermodynamic from solid, MeOH, read-out: Solubility): > 50 mg/mL | solubility ([3]; THF): >81.8 mg/mL | solubility ([3]; THF, organic solvent or mixture, thermodynamic from solid, THF, read-out: Solubility): > 50 mg/mL | solubility ([3]; acetone, organic solvent or mixture, thermodynamic from solid, Acetone, read-out: Solubility): > 50 mg/mL | solubility ([3]; heptane, organic solvent or mixture, thermodynamic from solid, Heptane, read-out: Solubility): < 0.63 mg/mL | solubility ([3]; isobutanol, organic solvent or mixture, thermodynamic from solid, Isobutanol, read-out: Solubility): > 5.8 mg/mL | solubility ([3]; toluene, organic solvent or mixture, thermodynamic from solid, Toluene, read-out: Solubility): < 0.96 mg/mL | solubility ([3]; water, thermodynamic from solid, Water, read-out: Solubility): < 0.83 mg/mL | Physical stability (form by XRPD) [4]: No form change was detected | Purity (%) - 8 days ([5]; 40° C. (75% RH), HPLC): 99.86% | Physical and chemical stability ([5]; 40° C. (75% RH)): physically and chemically stable | XRPD - 29 days ([5]; 40° C. (75% RH)): No Change | Purity (%) - 29 days ([5]; 40° C. (75% RH), HPLC): 99.92% | Purity (%) - 8 days ([5]; 60° C., HPLC): 99.86% | Physical and chemical stability ([5]; 60° C.): physically and chemically stable | XRPD - 29 days ([5]; 60° C.): No Change | Purity (%) - 29 days ([5]; 60° C., HPLC): 99.91% | Purity (%) ([5]; Starting material (before storage), HPLC): 99.87% | XRPD result after slurry ([6]; Heptane): Form A* | XRPD result after slurry ([6]; IPAc): Form A* | XRPD result after slurry ([6]; Toluene): Form A* | Crystallinity after manual grinding ([7]; grinding for five minutes): became low | XRPD form after manual grinding ([7]; ground for about two and five minutes manually): remained unchanged and no new form was obtained by grinding
